Patent US6372783B1, “Enantiomeric compounds for treatment of cardiac arrhythmias and methods of use” (Aryx Therapeutics, priority 1999, dated 2002)

Tests used:
Male Sprague-Dawley rats = assay: Anti-arrhythmic activity in anesthetized rats (benzene/adrenaline challenge; VPB, heart rate, EKG intervals); format: in vivo, rat; conditions: for PR interval / QRS interval / QT interval / Heart rate (beats/minute) / Inhibition of tachycardia / Number of VPB / Inhibition of VPB: isolated enantiomer as compared to respective racemate; for PR interval / QRS interval / QT interval: EKG; for Heart rate (beats/minute) / Inhibition of tachycardia: adrenaline injection; for Number of VPB / Inhibition of VPB: benzene/adrenaline challenge; for Inhibition of VPB: 4 mg/kg i.v. then 12 mg/kg/h for 2 hours; for VPB-inhibiting activity at the end of the washout period: time 180 min; for protection against adrenaline-induced tachyarrhythmia / tachycardia (heart rate): drug administered time 0 to 120 minutes; for inhibition of the formation of ventricular premature beats (VPB) during drug administration: whole period of drug administration (time 0 to 120 min)
Protocol: Anti-arrhythmic Activity in Anesthetized Rats.
Male Sprague-Dawley rats with body weights of 410±30 g (Harlan Sprague Dawley Inc., Indianapolis, Ind.), were anesthetized with sodium pentobarbital (50 mg/kg i.p.—Butler Co., Columbus, Ohio). The skin from the neck area was removed and the jugular veins on both sides were cleared of connective tissue. Both jugular veins and the left carotid artery were isolated, and the latter tied up cranially with a surgical silk (ETHICON 4-0, Ethicon Inc., Australia). A plastic catheter ([…] 19 ga, Vecton Dickinson, Sandy, Utah), filled with a solution containing 10% sodium heparin (Elkins-Sinn Inc., Cherry Hill, N.J.) in normal saline (100 U/ml sodium heparin), was introduced into the artery and fixed with surgical silk.
The catheter was connected to a pressure transducer (OHMEDA P23-XL, Ohmeda Medical Devices Division Inc., Madison, Wis.), filled with the same heparinized 0.9% NaCl solution, to register beat-to-beat arterial pressure. Needle electrodes were inserted s.c., and together with the pressure transducer, were joined to a GOULD TA 2000 recorder. Leads II, aVF and intraarterial blood pressure were monitored simultaneously throughout the experiments and recorded at certain intervals at 50 and 200 mm/sec paper speed.
The surgery was completed with an incision on the trachea where a short plastic tubing was placed and the animal was connected to a rodent-model ventilator (HARVARD Model 683, Harvard Apparatus, Inc., Holliston, Mass.). The animals were ventilated in a controlled way, depending on their spontaneous breathing frequency (55-75/min).
Drug administrations were carried out through i.v. catheters (TERUMO 24 GA*¾″, Terumo Medical Corp., Elkton, Md.) inserted into both jugular veins. The left side was used for drug infusions by means of a syringe pump (SAGE INSTRUMENTS, Model 341B, Orion Res. Inc., Boston, Mass.), and the right side was used for adrenaline injections. The experiments were started after at least 15 minutes of stabilization. Benzene/adrenaline challenges were performed as follows: the respirator inlet was connected to a 50-ml bubbler half-full with benzene (Fisher Scientific, Fair Lawn, N.J.) so that the inspired air was saturated with benzene vapor. The animal was ventilated with benzene vapor for two minutes. The tidal volume was typically 1 ml/100 g of animal. During the last 30 seconds of benzene ventilation, 10 μg/kg adrenaline solution (in 0.9% NaCl) was injected into the right jugular vein. […] These arrhythmias could be elicited repeatedly. After three control VTs (at −30, −20 and −10 minutes), the test compounds were injected slowly during 30 seconds at a dose of 4 mg/kg i.v., immediately followed by a slow infusion of 12 mg/kg/h for 2 hours. The flow rate during the infusion period was 1 ml/h.
There were 5 rats per test compound and each animal served as its own control. The ability of the different drugs to suppress arrhythmias was tested against repeated benzene/adrenaline challenges at 5, 15, 30,45, 60, 90, 120 (end of drug infusion), 135, 150, 165 and 180 minutes after the i.v. bolus injection. The amplitudes of the systolic arterial pressure and diastolic arterial pressure […] with the help of a pressure-amplitude calibration curve. Heart rate, number of ventricular complexes during the occurrence of VTs and VPBs, and certain ECG parameters (PR, QRS, QT durations and RR cycle lengths in msec) were also recorded and measured manually. At each time-point, 3-5 cycles were measured and the average values were entered into EXCEL Windows 97. The average and standard deviation for the five experimental animals per compound were calculated.

[1] = Half-life in human plasma in vitro; format: in vitro ADME; conditions: for half-life in human plasma: 37° C.
Protocol: Half-life in Human Plasma in Vitro.
Venous blood (60 ml) was collected in heparinized 1 5-ml Vacutainer® tubes from the forearm of five human volunteers. Each tube contained 1,000 units of heparin sodium salt. The blood was immediately centrifuged at 2,000 g for 10 minutes and the plasma was collected. Immediately after collection, the plasma was divided into 2-ml aliquots in borosilicate glass tubes (5-ml capacity) capped with a plastic stopper. The tubes were then equilibrated in a 37° C.-water bath for at least 15 minutes before the test samples were added.
Stock solutions were prepared by dissolving 25 μmoles (about 18 mg) of each of the test compounds in 10 ml of deionized water. To each of the glass tubes containing 2 ml of fresh plasma, equilibrated at 37° C., was added 40 μl of the stock solutions (one test compound per tube). The plasma/stock solutions were then mixed. Samples (250 μl) were collected at time 0 (immediately after mixing test compounds in plasma) and then at 30, 60, 90, 120, 180, 240, and 300 minutes. The test tubes were capped, to avoid concentration due to evaporation, and left in the 37° C. bath during the entire experiment. Each aliquot was immediately introduced into a 1.5-ml microfuge tube containing 20 μl of a 0.01% solution of diethyl paranitrophenylphosphate (paraoxon) in ethanol in order to inhibit esterase activity. The tubes were then capped and vortexed, then kept at −20° C. until analysis. The samples were thawed and mixed with 750 μl of a 0.1% solution of trifluoroacetic acid (TFA) in acetonitrile, vortexed for thorough mixing, and then centrifuged at 12,000 g for 15 minutes. The supernatant was collected for injection in the HPLC system.
The HPLC mobile phase consisted of acetonitrile and water containing 0.1% TFA and 400 mg/L benzyltriethylammoniumchloride (BTEAC) in the following proportions and flow rates: 85% acetonitrile and 15% water at 2.0 ml/min. The detection wavelength was set at 242 nm, and the injected volume was 100 μL. The HPLC peaks were recorded, and the integrated values were plotted against time using the SIGMAPLOT software version 4.0 for WINDOWS. The resulting curves were fitted to a first-order exponential decay equation from which hydrolysis half-lives were calculated.

[2] = benzene vapors and adrenaline challenge

Row | half-life in human plasma [1] [h] | Structure (SMILES) | PR interval (Male Sprague-Dawley rats; anesthetized rats) | QRS interval (Male Sprague-Dawley rats; anesthetized rats) | QT interval (Male Sprague-Dawley rats; anesthetized rats) | Heart rate (beats/minute) (Male Sprague-Dawley rats; anesthetized rats) | Inhibition of tachycardia (Male Sprague-Dawley rats; anesthetized rats) | Number of VPB (Male Sprague-Dawley rats; anesthetized rats) | Inhibition of VPB (Male Sprague-Dawley rats; anesthetized rats) | VPB-inhibiting activity at the end of the washout period (Male Sprague-Dawley rats) | protection against adrenaline-induced tachyarrhythmia / tachycardia (heart rate) (Male Sprague-Dawley rats; comparison of the forms) | metabolism in human plasma [1] | anti-arrhythmic activity (VPB inhibition) of the racemate relative to the enantiomers (Male Sprague-Dawley rats; [2]) | inhibition of the formation of ventricular premature beats (VPB) during drug administration (Male Sprague-Dawley rats; [2]) | effect on QT segment / interval of the EKG (Class-III properties), potency (Male Sprague-Dawley rats; anesthetized rats, comparison of the forms)
1 |  | CC[C@@H](C)OC(=O)Cc1oc2ccccc2c1C(=O)c1cc(I)c(OCCN(CC)CC)c(I)c1 [Compound R-2042, (R)-sec-Butyl2-[3-(3,5-diiodo-4-(2-diethylaminoethyloxy)benzoyl)]benzofurane-acetate] | shorter | no change | no change | lower | longer | lower | longer | completely inactive |  |  |  |  | 
2 |  | CC[C@H](C)OC(=O)Cc1oc2ccccc2c1C(=O)c1cc(I)c(OCCN(CC)CC)c(I)c1 [ATI-2042] |  |  |  |  |  |  |  |  | very good protection | metabolized in human plasma by esterase enzymes |  |  | 
3 | 8.8 | CCN(CC)CCOc1c(I)cc(C(=O)c2c(CC(=O)O[C@@H](C)C(C)C)oc3ccccc23)cc1I [Compound S-2055, (S)-(3-Methyl)-2butyl 2-[3-(3,5-diiodod-4-(2-diethylaminoethyloxy)benzoyl)]benzo-furaneacetate] | shorter | longer | no change | lower | longer | lower | longer | completely inactive |  |  |  |  | 
4 |  | CC[C@H](C)OC(=O)Cc1oc2ccccc2c1C(=O)c1cc(I)c(OCCN(CC)CC)c(I)c1 [R,S-2042] |  |  |  |  |  |  |  |  | least potent and shortest acting |  | even less active than either the R- or the S-isomer |  | 
5 | 11.7 | CCN(CC)CCOc1c(I)cc(C(=O)c2c(CC(=O)O[C@H](C)C(C)C)oc3ccccc23)cc1I [Compound R-2055, (R)-(3-Methyl)-2butyl 2-[3-(3,5-diiodo-4-(2-diethylaminoethyloxy)benzoyl)]benzo-furaneacetate] | shorter | longer | no change | lower | longer | lower | longer | still retained part of its activity |  |  |  | totally inhibited | 
6 |  | CCN(CC)CCOc1c(I)cc(C(=O)c2c(CC(=O)OC(C)C(C)C)oc3ccccc23)cc1I (stereo not shown) [ATI-2055] |  |  |  |  |  |  |  |  | inhibits the tachycardia | metabolized in human plasma by esterase enzymes |  |  | 
7 |  | CC[C@H](C)OC(=O)Cc1oc2ccccc2c1C(=O)c1cc(I)c(OCCN(CC)CC)c(I)c1 [Compound S-2042, (S)-sec-Butyl2-[3-(3,5-diiodo-4-(2-diethylaminoethyloxy)benzoyl)]benzofurane-acetate] | longer | longer | longer | lower | longer | lower | longer | still retained part of its activity |  |  |  | totally inhibited | most potent and the longest acting
